In patent US20260355112A1, “HIGH-STABILITY LIPOSOME, PREPARATION METHOD THEREFOR, AND USE THEREOF” (SIRIO HEALTHCARE (ANHUI) CO., LTD., priority 2022, published 2026):

Experiments:
[1] = background statement; cited from earlier work
[2] = Microscopic observation (polarizing microscope); assay type: physicochemical; details: under the microscope
Description: The test sample was taken on a glass slide, spread homogeneously, and covered with a cover glass to prepare a temporary mounting slide.
A transflective polarizing microscope (VPV-900) was used. The specific procedures were as follows: adjust the brightness, fix the temporary mounting slide on the stage, align the light aperture with a low-power objective lens, and adjust the coarse focus screw until the field of view is clear. If the clarity is insufficient, use the fine focus screw for further adjustment or switch to a high-power objective lens for observation.
Bright spots can be observed in the middle of the sample in the field of view, which were crystalline structures.

Microscopic structure ([2]; listed as coenzyme Q10 raw material): irregular crystalline structures
Microscopic structure ([2]; listed as raw material of coenzyme Q10): irregular crystal structure
Structure (SMILES): COC1=C(OC)C(=O)C(C/C=C(\C)CC/C=C(\C)CC/C=C(\C)CC/C=C(\C)CC/C=C(\C)CC/C=C(\C)CC/C=C(\C)CC/C=C(\C)CC/C=C(\C)CCC=C(C)C)=C(C)C1=O [Coenzyme Q10, coenzyme Q10]
Antioxidant capacity relative to vitamin E [1]: 50 times
